“Also recorded” adds a separate entry of the source.

Test [1] has as its system primary mouse lung fibroblasts. Kind of test: PDGF-induced fibroblast chemotaxis (specificity control). In kind it is cell-based. How it is done: (§1) Lungs from unchallenged C57BL/6, LPA1^−/− or littermate wild type mice were digested for 45 minutes at 37° C. in DMEM with 0.14 U/ml Liberase Blenzyme 3 (Roche), and 60 μg/ml DNAse 1 (Sigma), passed through a 70 μm filter, centrifuged at 540×g at 4° C. and plated in tissue culture flasks in DMEM with 15% (vol/vol) fetal bovine serum (FBS, Sigma). Cells were passaged when subconfluent following harvest with trypsin-EDTA (Cellgro®). To ensure that cultures contained almost purely fibroblasts, cells were used for experiments at passage 3 or higher.
(§2) After being serum-starved in DMEM without FBS overnight, subconfluent primary lung fibroblasts were harvested with non-enzymatic Cell Dissociation Solution (Sigma) to avoid possible proteolysis of surface chemoattractant receptors by trypsin. Harvested cells, at 5.0×10^5 cells/ml in 50 μl of DMEM, were placed in the top of a 48-well modified Boyden microchemotaxis chamber (NeuroProbe). Duplicate 30 μl aliquots of either: i) 18:1 LPA (Avanti Polar Lipids) or PDGF-BB (R&D Systems) in DMEM with 0.1% fatty acid-free bovine serum albumin (Sigma); or ii) BAL, or BAL fractions, diluted 1:4 in DMEM, were placed in the bottom wells of the chamber and separated from the cells by a 8-μm-pore, polyvinylpyrrolidone-free polycarbonate filter (Osmonics) that had been coated with fibronectin (Sigma). The apparatus was incubated at 37° C. and 5% CO2 for 3 hours, and cells migrating across the filter and adhering to the bottom side of the filter were stained with a commercially modified Wright's stain (Hema 3 stain set, Fisher Diagnostics) and counted, after cells remaining on the top side of the filter had been scraped off. Data from these experiments is presented as chemotactic indices, i.e. the number of cells migrating in response to BAL divided by the number of cells migrating to media controls.

Test [2] relates to primary mouse lung fibroblasts. The test can be described thus: Fibroblast chemotaxis induced by BAL from mice on Day 5 post-bleomycin (modified Boyden chamber). In kind it is cell-based. As to the method: Bronchoalveolar lavage (BAL) samples were obtained by lung lavage using two 0.5 ml aliquots of PBS. These samples were then provided for analysis of: i) chemoattractant activity, ii) LPA; iii) total protein; and iv) D-dimer concentrations. These BAL samples were centrifuged at 3000×g for 20 min at 4° C., and the supernatants transferred to siliconized low-binding eppendorf tubes (PGC Scientifics) for subsequent analysis.
as §1
as §2, with “Data from these experiments is presented as chemotactic indices, i.e. the number of cells migrating in response to BAL divided by the number of cells migrating to media controls.” left out

The test system of test [3] is primary mouse lung fibroblasts. Kind of test: LPA-induced fibroblast chemotaxis. Particulars: for effect of albumin on LPA-induced fibroblast chemotaxis: 0.1% fatty acid-free BSA, C57Bl/6 lung fibroblasts, FIG. 9b. The format is cell-based. As to the method: as §1, §2
Test [4] relates to LPA-activated chloride channel. Particulars: elevated levels; human lung fibroblasts; literature (Yin et al. 2005); cited from earlier work.
In test [5] the test system is LPA1, LPA3, LPA2. Particulars: literature (Ohta et al. 2003; Heise et al. 2001); cited from earlier work.
Test [6] relates to sphingosine 1-phosphate receptors. Particulars: literature (Ohta et al. 2003); cited from earlier work.
The subject of test [7] is human fetal lung fibroblasts (HFL1 cells). Kind of test: Fibroblast chemotaxis induced by BAL samples from human IPF patients. The format is cell-based. Particulars: 1 μM Ki16425; FIG. 8d. How it is done: After being serum-starved in DMEM without FBS overnight, subconfluent primary lung fibroblasts were harvested with non-enzymatic Cell Dissociation Solution (Sigma) to avoid possible proteolysis of surface chemoattractant receptors by trypsin. Harvested cells, at 5.0×10^5 cells/ml in 50 μl of DMEM, were placed in the top of a 48-well modified Boyden microchemotaxis chamber (NeuroProbe). […] The apparatus was incubated at 37° C. and 5% CO2 for 3 hours, and cells migrating across the filter and adhering to the bottom side of the filter were stained with a commercially modified Wright's stain (Hema 3 stain set, Fisher Diagnostics) and counted, after cells remaining on the top side of the filter had been scraped off. […]
BAL samples were recovered from IPF patients and normal controls following instillation of sterile 0.9% saline by flexible fiberoptic bronchoscopy, performed both at the Instituto Nacional de Enfermedades Respiratorias and the Massachusetts General Hospital (MGH), as previously described. […] Cells growing at passage 3 or higher were analyzed as primary human BAL fibroblasts.

Regarding pertussis toxin [PTX], in test [1] (PTX-pretreatment of fibroblasts, FIG. 1b, 1i), the “effect of PTX pretreatment on PDGF-induced fibroblast chemotaxis” value was “not inhibited”. In test [2] (PTX-pretreatment of fibroblasts, D5 BAL, FIG. 1b), the “effect of PTX pretreatment on BAL-induced fibroblast chemotaxis” value was “inhibited chemotaxis; also recorded: completely inhibited”. Moreover, the “effect of PTX pretreatment on LPA-induced fibroblast chemotaxis” value in test [3] (PTX-pretreatment, LPA 10^−9-10^−7 M, FIG. 1i) is reported as “inhibited chemotaxis; also recorded: reduced”.
Regarding lysophosphatidic acid [LPA], the “fibroblast chemotactic activity of LPA” value in test [3] (LPA bound to albumin, FIG. 1h) was “chemotactic; also recorded: potent fibroblast chemoattractant”.
Consider dioctyl-glycerol pyrophosphate, for which the “effect on activation of LPA-activated chloride channel” value in test [4] is listed as “blocked”.
On to “fatty acid-free BSA: fatty acid-free bovine serum albumin (Sigma)”, for which the results for the “effect of albumin on LPA-induced fibroblast chemotaxis” value in test [3] and in test [3] (listed as methanol extracted fatty acid-free albumin) were “potentiated” and “significantly potentiated”, respectively.
Regarding `CCCCCCCC/C=C\CCCCCCCC(=O)N[C@@H](COP(=O)(O)O)Cc1ccc(OCc2ccccc2)cc1` [VPC12249], in test [5], the “receptor subtype rank order of inhibition of LPA-induced responses” value was “LPA1≧LPA3>>LPA2”. In addition, the “effect on PDGF-induced fibroblast chemotaxis” value in test [1] (100 μM VPC12249, PDGF 10^−9 M, FIG. 10) is “did not affect; also recorded: similar; also recorded: not affected”. Moreover, the “effect on fibroblast chemotaxis induced by D5 post-bleomycin BAL” value in test [2] (100 μM VPC12249, C57BL/6 fibroblasts, FIG. 10) is “reduced chemotaxis; also recorded: significantly inhibited”.
For `Cc1noc(-c2ccc(CSCCC(=O)O)cc2)c1NC(=O)OC(C)c1ccccc1Cl` (stereo not drawn) [Ki16425], the “effects on cellular responses mediated by sphingosine 1-phosphate receptors” value in test [6] is listed as “without appreciable effects”. For the same compound, the “receptor subtype rank order of inhibition of LPA-induced responses” value in test [5] is listed as “LPA1≧LPA3>>LPA2”. In test [7], the “effect on chemotaxis of HFL1 cells to BAL samples from IPF patients” value is “reduced chemotaxis; also recorded: significantly inhibited”. For the same compound, the “effect on PDGF-induced fibroblast chemotaxis” value in test [1] (1 μM Ki16425, 10^−8 or 10^−7 M PDGF, FIG. 5b) is “not affected; also recorded: similar; also recorded: did not affect”. Also, the “effect on fibroblast chemotaxis induced by D5 post-bleomycin BAL” value in test [2] (1 μM Ki16425, C57BL fibroblasts, FIG. 5b) was “significantly inhibited”.
